Measurements published in paper PMC10005754, “Non-Nutritive Sweeteners Acesulfame Potassium and Sucralose Are Competitive Inhibitors of the Human P-glycoprotein/Multidrug Resistance Protein 1 (PGP/MDR1)” (Nutrients, 2023).

Target: T1, P-glycoprotein (PGP/MDR1) (Homo sapiens, UniProt P08183)
T1 construct: gene ABCB1; recombinant human PGP in membrane vesicles (Human MDR1 vesicles)
Assay: ATPase stimulation (ADP-Glo Max) in human MDR1 vesicles; also Calcein-AM retention in HepG2 cells
Assay type: biochemical

T1 sequence (P08183 whole entry): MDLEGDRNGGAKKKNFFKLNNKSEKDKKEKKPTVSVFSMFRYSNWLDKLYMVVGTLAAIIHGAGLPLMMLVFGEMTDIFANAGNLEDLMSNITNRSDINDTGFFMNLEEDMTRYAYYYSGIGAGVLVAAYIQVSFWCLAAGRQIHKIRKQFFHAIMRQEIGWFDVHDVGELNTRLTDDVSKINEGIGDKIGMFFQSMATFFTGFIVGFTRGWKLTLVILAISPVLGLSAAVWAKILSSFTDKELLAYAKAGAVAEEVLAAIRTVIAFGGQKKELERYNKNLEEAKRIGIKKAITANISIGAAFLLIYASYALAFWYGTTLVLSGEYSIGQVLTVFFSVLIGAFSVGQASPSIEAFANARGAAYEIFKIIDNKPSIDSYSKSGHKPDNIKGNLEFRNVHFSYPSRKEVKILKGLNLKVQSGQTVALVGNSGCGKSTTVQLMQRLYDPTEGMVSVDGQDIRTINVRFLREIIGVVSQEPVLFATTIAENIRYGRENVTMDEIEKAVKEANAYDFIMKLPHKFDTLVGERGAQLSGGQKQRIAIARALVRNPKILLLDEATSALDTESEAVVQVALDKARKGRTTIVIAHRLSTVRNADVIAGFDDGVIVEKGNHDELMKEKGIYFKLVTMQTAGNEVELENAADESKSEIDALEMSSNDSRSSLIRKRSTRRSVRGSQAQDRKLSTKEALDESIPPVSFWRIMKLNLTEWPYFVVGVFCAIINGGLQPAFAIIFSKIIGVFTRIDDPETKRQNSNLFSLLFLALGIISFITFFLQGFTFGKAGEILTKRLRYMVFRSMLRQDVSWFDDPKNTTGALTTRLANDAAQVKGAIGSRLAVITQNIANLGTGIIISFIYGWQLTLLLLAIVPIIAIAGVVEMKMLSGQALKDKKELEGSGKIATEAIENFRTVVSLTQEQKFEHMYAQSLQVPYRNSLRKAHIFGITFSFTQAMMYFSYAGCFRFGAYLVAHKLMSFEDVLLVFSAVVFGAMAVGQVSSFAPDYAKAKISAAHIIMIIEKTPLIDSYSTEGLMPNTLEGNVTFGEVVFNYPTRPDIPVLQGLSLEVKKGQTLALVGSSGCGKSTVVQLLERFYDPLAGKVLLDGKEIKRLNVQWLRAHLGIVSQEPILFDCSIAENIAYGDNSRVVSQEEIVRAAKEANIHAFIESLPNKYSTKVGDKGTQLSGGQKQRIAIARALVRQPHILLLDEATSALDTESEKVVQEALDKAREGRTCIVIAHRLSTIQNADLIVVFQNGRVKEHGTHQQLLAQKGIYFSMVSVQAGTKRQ

Question: For `OC[C@H]1O[C@H](O[C@]2(CCl)O[C@H](CCl)[C@@H](O)[C@@H]2O)[C@H](O)[C@@H](O)[C@H]1Cl` [Sucr, sucralose], which EC50 is on record?
Answer: 0.056 nM
